Laboratory results: patent publication US20250304622A1, “SHORT APOLIPOPROTEIN E MIMETIC PEPTIDES AND METHODS OF USE” (The United States of America, as represented by the …, priority 2022, published 2025)
Numbered stars: 1 amine (or outer) side, 2 acyl side, 3 side chain; on linkers, the order of the positions; unused ones are H or OH. Bridge positions count the residues as written; N and C are the ends. Square brackets hold non-standard residues; d marks the D form. Primed or numbered codes have the meaning given here. * marks the point of attachment. B5 = bis-pentenylglycine, C=CCCCC(CCCC=C)(N[*:1])C(=O)[*:2]; R8 = C=CCCCCCC[C@@](C)(N)C(=O)O; S8 = C=CCCCCCC[C@](C)(N)C(=O)O; αMeL = CC(C)C[C@](C)(N)C(=O)O; Octanoyl′ = not defined here; S5 = C=CCCC[C@](C)(N)C(=O)O; Myristyl = CCCCCCCCCCCCCC*; Octanoyl = CCCCCCCC(=O)*

Legend:
[1] = tested on: Mouse Hepatitis Virus (MHV); test: MHV-GFP replication in HeLa mCC1a cells; type: cell-based; details: 15 μM peptide, 16 hours, FIG. 11
Excerpt: Mouse Hepatitis Virus (MHV) is a beta coronavirus that infects mice cells via the murine CEACAM1 receptor (mCC1a receptor). HeLa (human epithelium) cells that have been modified to express the mCC1a receptor can be infected with MHV. The recombinant MHV used in this experiment has been modified such that it contains additional nucleocapsid (N) protein segment which is N-terminally fused with a green fluorescence protein tag (GFP) (see Verheije et al., J. Virol. 84:11575-11579, 2010). When cells are infected with MHV, the MHV replicates generating more GFP and increasing the fluorescent signal.
HeLa mCC1a cells were cultured in a 96 well plate. Cells were infected for 2 hours with MHV-GFP at 37° C. Viral stock solution was diluted 40-fold. Stock was prepared by infecting HeLa cells with MHV-GFP for 3 days and by collecting cellular media. Cells were washed with PBS and treated with media (DMEM plus 10% FBS, 100 IU/ml penicillin G, […] streptomycin, 0.5 mg/ml G418) containing ApoE peptides (15 μM) or media without peptide and incubated for 16 hours at 37° C. Cells were washed with PBS and total GFP fluorescence (ex/em 488/520) in cells was measured on the plate using a fluorescence plate reader.

[2] = tested on: ApoE-ko mice; test: Single dose study in ApoE-ko mice, plasma total cholesterol and triglycerides; type: in vivo; details: for plasma total cholesterol / plasma triglyceride levels: ApoE-ko mice, 4.6 mg/kg (2.5 μmol/kg) intravenous; for plasma total cholesterol: FIG. 10A; for plasma triglyceride levels: effect transient, FIG. 10B; for lowering of plasma total cholesterol: ApoE-KO mice, 2.5 μmol/kg i.v. single dose, FIG. 20A
Experimental: The effect of OctaC-E139-150 and OctaN-E139-150 peptides were tested in ApoE-ko mice. The mice were kept on a normal chow diet. At 3.5 months of age, 15 mice were divided into three groups of five mice each, as follows: 1) control group; 2) OctaC-E139-150 peptide group; and 3) OctaN-E139-150 peptide group. Peptides were dissolved in PBS at 1.5 mg/ml (810 μM OctaC-E139-150; 849 μM OctaN-E139-150). Mice were weighed one day before peptide administration and peptide amount was calculated for each mouse to receive 4.6 mg/kg peptide (2.5 μmol/kg). The calculated amount of 1.5 mg/ml peptide was placed in a syringe and normalized with PBS to 80 μl. The mice received intravenous injection of PBS (control) or the peptide. Blood samples were collected immediately prior to injection, and 1 hour, 3 hours, and 6 hours after injection. Blood was centrifuged at 3000 rpm at 4° C. for 20 minutes and plasma was separated (20-30 μl) and stored at 4° C. Plasma triglycerides and total cholesterol were measured the next day using L-type triglyceride M assay and The cholesterol E kit (Wako, FUJIFILM Medical Systems USA).
MyrN-E139-150 and OctaN-E139-150 peptides were tested in a single dose ApoE-KO mouse study. ApoE-KO mice (n=9) were divided into 3 groups: control group (PBS), n=3; MyrN-E139-150 (2.5 μmol/kg; 4.6 mg/kg), n=3; and OctaN-E139-150 (2.5 μmol/kg; 4.4 mg/kg), n=3. Mice were fed normal chow diet for the whole study. Peptides were injected i.v. and blood samples were collected at pre-injection and 1 h, 3 h, and 6 h after the injection of the peptides. Measurement of plasma total cholesterol and triglycerides was as described in Example 2. The peptides lowered plasma total cholesterol (FIG. 20A; 37% at 3 h; 29% at 6 h) and triglycerides (FIG. 20B; 30-50% at 1 h).

[3] = tested on: LDLR-ko HepG2 cells; test: LDL uptake by heparinase treated LDLR-KO HepG2 cells; type: cell-based; details: heparinase pretreatment, FIG. 18B
Experimental: (§1) Involvement of heparan sulfate proteoglycans (HSPGs) in peptide-mediated LDL uptake was tested. WT HepG2 cell were pretreated with a mixture of Heparinase I, II, and III (IBEX Pharmaceuticals) to degrade heparan sulfate chains on the cell surface. Next, LDL uptake studies were performed with OctaC-E139-150-S and MyrN-E141-150-amL peptides (FIGS. 18A-18C). […] Similarly, heparinase treatment attenuated MyrN-E141-150-amL mediated LDL uptake in WT HepG2 cells (FIG. 18C).

[4] = tested on: WT HepG2 cells; test: LDL uptake by heparinase treated WT HepG2 cells; type: cell-based; details: Heparinase I, II, and III pretreatment
Experimental: as §1

[5] = tested on: WT HepG2 cells; test: Effect of heparin on peptide mediated LDL uptake in WT HepG2 cells; type: cell-based; details: 10 μM peptide, heparin 10 USP/ml, 1 h at 37° C., FIG. 19
Experimental: Fluorescently labeled LDL (Alexa Fluor 568-NHS ester) at 50 μg/ml final protein concentration was preincubated with or without 10 μM MyrN-E141-150-amL peptide for 30 min at 37° C. (solutions made in DMEM (no phenol red, no serum) with 0.1% BSA). To some LDL and some LDL/peptide samples, heparin was added (10 USP/ml final conc.; heparin, sodium injection from porcine intestinal mucosa (Fresenius Kabi USA, Lake Zurich, IL)). Mixtures were preincubated for additional 5 min at 37° C. Next, WT HepG2 cells were incubated with the LDL/peptide/heparin mixtures for 1 h at 37° C. Lipoprotein uptake was assessed by flow cytometry. Heparin diminished the effect of MyrN-E141-150-amL peptide on LDL uptake in the wild type HepG2 cells (FIG. 19).

[6] = tested on: LDLR-KO mice; test: Single dose LDLR-KO mouse study, plasma total cholesterol; type: in vivo; details: 2.5 μmol/kg (4.6 mg/kg) i.v. single dose, after 3 h and 6 h of injection, FIG. 21A
Experimental: MyrN-E141-150-amL and OctaN-E141-150 were tested in a single dose LDLR-KO mouse study. LDLR-KO mice (n=9) were divided into 3 groups: control group (PBS), n=3; MyrN-E141-150-amL (2.5 μmol/kg; 4.6 mg/kg), n=3; and OctaN-E141-150 (2.5 μmol/kg; 4.4 mg/kg), n=3. Mice were fed normal chow diet for the whole study. Peptides were injected i.v. and blood samples were collected at pre-injection and 1 h, 3 h, 6 h and 24 h after the injection of the peptides. Measurement of plasma total cholesterol was as described in Example 2. MyrN-E141-150-amL lowered plasma total cholesterol around 15-30% after 3 h and 6 h of injection (FIG. 21A).

[7] = low peptide dose, FIGS. 18A, 18C

Substance	MHV-GFP fluorescence (viral replication) [1]	plasma total cholesterol [2]	plasma triglyceride levels [2]	effect of heparinase treatment on peptide mediated LDL uptake [4, 7]	lowering of plasma total cholesterol ([2]; at 3 h) [%]	lowering of plasma total cholesterol ([2]; at 6 h) [%]	other results
Ac-RVR(S5)ASH(B5)RKLRKR(S8)LR-NH2 (Ac-RVR[S5]ASH[B5]RKLRKR[S8]LR-NH2; staple 8-15, 4-8) [E134-150-Stitch]	dramatic reductions						
Ac-SH(R8)RKLRKR(S5)LR-Octanoyl (Ac-SH[R8]RKLRKR[S5]LR-{Octanoyl′}; staple 3-10) [OctaC-E139-150]	dramatic reductions	significantly decreased	significantly decreased	diminished low dose peptide effect on LDL uptake			effect of heparinase treatment on peptide mediated LDL uptake [3]: showed similar results; effect of heparinase treatment on peptide mediated LDL uptake ([4]; higher peptide concentrations, FIG. 18A): heparinase treatment had a lower effect
Myristyl-(R8)RKLRKR(S5)L(alpha-methyl)R-NH2 (Myristyl-[R8]RKLRKR[S5][αMeL]R-NH2; staple 1-8; SMILES CCCCCCCCCCCCCCN[C@]1(C)CCCCCCC=CCCC[C@@](C)(C(=O)N[C@@](C)(CC(C)C)C(=O)N[C@@H](CCCNC(=N)N)C(N)=O)NC(=O)[C@H](CCCNC(=N)N)NC(=O)[C@H](CCCCN)NC(=O)[C@H](CCCNC(=N)N)NC(=O)[C@H](CC(C)C)NC(=O)[C@H](CCCCN)NC(=O)[C@H](CCCNC(=N)N)NC1=O) [MyrN-E141-150-amL]				attenuated			effect of heparin on peptide effect on LDL uptake [5]: diminished; lowering of plasma total cholesterol [6]: 15-30%
Myristyl-SH(R8)RKLRKR(S5)LR-NH2 (Myristyl-SH[R8]RKLRKR[S5]LR-NH2; staple 3-10; SMILES CCCCCCCCCCCCCCN[C@@H](CO)C(=O)N[C@@H](Cc1c[nH]cn1)C(=O)N[C@]1(C)CCCCCCC=CCCC[C@@](C)(C(=O)N[C@@H](CC(C)C)C(=O)N[C@@H](CCCNC(=N)N)C(N)=O)NC(=O)[C@H](CCCNC(=N)N)NC(=O)[C@H](CCCCN)NC(=O)[C@H](CCCNC(=N)N)NC(=O)[C@H](CC(C)C)NC(=O)[C@H](CCCCN)NC(=O)[C@H](CCCNC(=N)N)NC1=O) [MyrN-E139-150]					37	29	
Octanoyl-SH(R8)RKLRKR(S5)LR-NH2 (Octanoyl-SH[R8]RKLRKR[S5]LR-NH2; staple 3-10; SMILES CCCCCCCC(=O)N[C@@H](CO)C(=O)N[C@@H](Cc1c[nH]cn1)C(=O)N[C@]1(C)CCCCCCC=CCCC[C@@](C)(C(=O)N[C@@H](CC(C)C)C(=O)N[C@@H](CCCNC(=N)N)C(N)=O)NC(=O)[C@H](CCCNC(=N)N)NC(=O)[C@H](CCCCN)NC(=O)[C@H](CCCNC(=N)N)NC(=O)[C@H](CC(C)C)NC(=O)[C@H](CCCCN)NC(=O)[C@H](CCCNC(=N)N)NC1=O) [OctaN-E139-150]		significantly decreased	significantly decreased		37	29	
